The results in this text go back to patent US12162888B2, “Carboxamides as ubiquitin-specific protease inhibitors” (Valo Early Discovery, Inc., priority 2018, dated 2024).

The structures appear in SMILES notation. Where two headings read alike, the source gives them in different places.

The target in this assay is T1, USP28 (His-tagged USP28-FL-mammalian) (Homo sapiens, UniProt Q96RU2).
T1 construct: Expression of USP28 (1-1077)-TEV-6*His (pTT5 vector) was carried out in Expi293f cells; made in house; host or cells: Expi293F cells (pTT5 vector)
T1 sequence (Q96RU2 1-1077): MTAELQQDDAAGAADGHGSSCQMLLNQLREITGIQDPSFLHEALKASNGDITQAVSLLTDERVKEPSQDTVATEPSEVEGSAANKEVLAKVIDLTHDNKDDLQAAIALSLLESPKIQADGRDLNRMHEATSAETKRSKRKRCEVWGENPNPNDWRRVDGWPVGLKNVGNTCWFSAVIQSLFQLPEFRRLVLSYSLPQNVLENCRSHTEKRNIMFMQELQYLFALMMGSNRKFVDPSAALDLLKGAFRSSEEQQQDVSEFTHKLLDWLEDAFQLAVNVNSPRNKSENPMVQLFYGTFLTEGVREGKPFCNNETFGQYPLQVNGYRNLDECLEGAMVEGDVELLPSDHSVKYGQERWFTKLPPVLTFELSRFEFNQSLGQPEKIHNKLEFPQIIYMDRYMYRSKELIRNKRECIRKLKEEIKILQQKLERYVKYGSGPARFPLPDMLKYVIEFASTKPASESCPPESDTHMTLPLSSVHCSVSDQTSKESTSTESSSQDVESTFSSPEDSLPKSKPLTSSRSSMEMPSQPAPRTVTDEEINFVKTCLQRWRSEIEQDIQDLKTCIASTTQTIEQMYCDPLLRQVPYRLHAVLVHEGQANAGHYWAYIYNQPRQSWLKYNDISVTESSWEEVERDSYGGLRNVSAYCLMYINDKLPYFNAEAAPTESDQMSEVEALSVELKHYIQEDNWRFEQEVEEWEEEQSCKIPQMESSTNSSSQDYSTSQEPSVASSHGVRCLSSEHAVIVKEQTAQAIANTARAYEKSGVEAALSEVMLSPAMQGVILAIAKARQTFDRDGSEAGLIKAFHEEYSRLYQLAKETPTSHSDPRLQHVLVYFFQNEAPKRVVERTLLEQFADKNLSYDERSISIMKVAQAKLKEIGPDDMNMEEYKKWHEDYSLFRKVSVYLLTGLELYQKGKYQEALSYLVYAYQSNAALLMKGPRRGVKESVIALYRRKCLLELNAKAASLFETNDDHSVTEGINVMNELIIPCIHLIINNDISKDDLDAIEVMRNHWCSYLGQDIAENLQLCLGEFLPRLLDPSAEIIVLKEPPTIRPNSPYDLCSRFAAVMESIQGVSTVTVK
Briefly: Ubiquitin-Rhodamine 110 Assay for USP28 Activity, Example A-1(a). Type of assay: biochemical. Here is the method:
Example A-1(a): Biochemical Assay: Ubiquitin-Rhodamine 110 Assay for USP28 Activity
The assay was performed in a final volume of 9 μL in assay buffer containing 20 mM Tris-HCl (pH 8.0, (1M Tris-HCl, pH 8.0 solution; Corning 46-031-CM)), 3 mM BME (2-Mercaptoethanol; Sigma 63689-25ML-F), 0.03% BGG (0.22 μM filtered, Sigma, G7516-25G), and 0.01% Triton X-100 (Sigma, T9284-10L). Nanoliter quantities of 10-point, 3-fold serial dilution in DMSO was pre-dispensed into 1536 assay plates (Corning, #3724BC) for a final test concentration of 25 μM to 1.3 nM, top to lowest dose, respectively. Enzyme USP28, construct His-tagged USP28-FL-mammalian, (protein expression and purification procedure described below). Concentration and incubation times were optimized for the maximal signal-to-background while maintaining initial velocity conditions at a fixed substrate concentration. The final concentration of the enzyme in the assay was […]. Final substrate (Ub-Rh110; Ubiquitin-Rhodamine 110, UbiQ-126) concentration was 25 nM with [Ub-Rh110]<<Km. 3 μL of 2× enzyme was added to assay plates (pre-stamped with compound) preincubated with […] for 30 minutes and then 3 μL of 2× Ub-Rh110 was added to assay plates. Plates were incubated for 45 minutes at room temperature before addition of 3 μL of stop solution (final concentration of 10 mM citric acid (Sigma, 251275-500G)). Fluorescence was read on the Envision (Excitation at 485 nm and Emission at 535 nm; Perkin Elmer) or on the PheraSTAR (Excitation at 485 nm and Emission at 535 nm; BMG Labtech).
Procedure for the Protein expression and purification for construct His-tagged USP28-FL-mammalian
Expression of USP28 (1-1077)-TEV-6*His (pTT5 vector) was carried out in Expi293f cells (sequence derived from uniprot ID: Q96RU2-1). Cells were re-suspended in lysis buffer B 50 mM Bicine, pH 8.0, 20 mM NaCl, 5% glycerol, 0.1% CHAPS, 5 mM β-ME, 1 mM PMSF, 1 ug/ml Leupeptin, 1 ug/ml Pepstatin) and lysed by sonication. Insoluble material was removed by centrifugation and the supernatant was loaded onto a Ni-NTA column (GE Healthcare) equilibrated with Ni Buffer A (50 mM Bicine, pH 8.0, 20 mM NaCl, 5% glycerol, 0.1% CHAPS, 5 mM R-ME.) and washed with Ni Buffer A+20 mM imidazole until A280 reached baseline. The protein was eluted with Ni Buffer B (50 mM Bicine, pH 8.0, 20 mM NaCl, 5% glycerol, 0.1% CHAPS, 5 mM β-ME, 300 mM imidazole.). The protein was further purified using a Superdex™ 200 10/300 GL column (GE Healthcare) equilibrated with 50 mM Bicine, pH 8.0, 20 mM NaCl, 5% glycerol, 0.1% CHAPS, 5 mM β-ME. The protein was concentrated to 2.5 mg ml-1, flash-frozen in liquid N2 and stored at −80° C.
For assay formats Example A-1(a), A-1(b), and A-2, data were reported as percent inhibition compared with control wells based on the following equation: % inh=1−((FLU−AveLow)/(AveHigh−AveLow)) where FLU=measured Fluorescence, AveLow=average Fluorescence of no enzyme control (n=16), and AveHighh=average Fluorescence of DMSO control (n=16). IC50 values were determined by curve fitting of the standard 4 parameter logistic fitting algorithm included in the Activity Base software package: IDBS XE Designer Model 205. Data is fitted using the Levenburg Marquardt algorithm.

Setting [1] is: biochemical IC50 range, Ubiquitin-Rhodamine 110 assay, read-out: USP28 A-1(a).
[2] abbreviates: Ubiquitin-Rhodamine 110 biochemical assay, read-out: USP28 A-1(a) IC50 range.

On to `Cc1ccc2c(N)c(C(=O)N[C@H]3COc4nc(N5C[C@H](CF)[C@@H](N)C5)ccc4C3)sc2n1` [Example 541, 3-amino-N-[(3R)-7-[(3R,4S)-3-amino-4-(fluoromethyl)pyrrolidin-1-yl]-2H,3H,4H-pyrano[2,3-b]pyridin-3-yl]-6-methylthieno[2,3-b]pyridine-2-carboxamide], for which the IC50 under setting [1] was in the range of 200 to 2000 nM.
Consider `CO[C@H](C)CO[C@H]1CN(c2ccc3c(n2)CC[C@H](NC(=O)c2sc4nc(C)ccc4c2N)C3)C[C@@H]1N` [Example 482, 3-amino-N-[(6S)-2-[(3S,4S)-3-amino-4-[(2R)-2-methoxypropoxy]pyrrolidin-1-yl]-5,6,7,8-tetrahydroquinolin-6-yl]-6-methylthieno[2,3-b]pyridine-2-carboxamide], for which the IC50 under setting [2] is 50 to 200 nM.
Still for that read-out and setting: in the case of `CO[C@@H](C)CO[C@H]1CN(c2ccc3c(n2)CC[C@H](NC(=O)c2sc4nc(C)ccc4c2N)C3)C[C@@H]1N` [Example 481, 3-amino-N-[(6S)-2-[(3S,4S)-3-amino-4-[(2S)-2-methoxypropoxy]pyrrolidin-1-yl]-5,6,7,8-tetrahydroquinolin-6-yl]-6-methylthieno[2,3-b]pyridine-2-carboxamide] it was 50 to 200 nM.
With `Cc1ccc2c(N)c(C(=O)N[C@H]3COc4cc(N5CC[C@]6(CCCN6)C5)cc(F)c4C3)sc2n1` [Example 683, 3-amino-N-[(3R)-7-[(5R)-1,7-diazaspiro [4.4]nonan-7-yl]-5-fluoro-3,4-dihydro-2H-1-benzopyran-3-yl]-6-methylthieno [2,3-b]pyridine-2-carboxamide], the IC50 under setting [1] fell in the range of 1 to 50 nM.
The same measure, in the same setting: the value for `Cc1ccc2c(N)c(C(=O)N[C@H]3COc4nc(N5C[C@H](CF)[C@H](N)C5)ccc4C3)sc2n1` [Example 540, 3-amino-N-[(3R)-7-[(3S,4S)-3-amino-4-(fluoromethyl)pyrrolidin-1-yl]-2H,3H,4H-pyrano[2,3-b]pyridin-3-yl]-6-methylthieno[2,3-b]pyridine-2-carboxamide] was 50 to 200 nM; that for `CO[C@H]1CCCN(c2cc(F)c3c(c2)OC[C@H](NC(=O)c2sc4nc(C)ccc4c2N)C3)C[C@H]1N` [Example 691, 3-amino-N-[(3R)-7-[(3R,4S)-3-amino-4-methoxyazepan-1-yl]-5-fluoro-3,4-dihydro-2H-1-benzopyran-3-yl]-6-methylthieno[2,3-b]pyridine-2-carboxamide] was 50 to 200 nM; that for `Cc1ccc2c(N)c(C(=O)N[C@H]3COc4cc(N5CC[C@@]6(CCCN6)C5)cc(F)c4C3)sc2n1` [Example 684, 3-amino-N-[(3R)-7-[(5S)-1,7-diazaspiro[4.4]nonan-7-yl]-5-fluoro-3,4-dihydro-2H-1-benzopyran-3-yl]-6-methylthieno [2,3-b]pyridine-2-carboxamide] was 1 to 50 nM.
As to `CO[C@@H]1CCCN(c2ccc3c(n2)CC[C@H](NC(=O)c2sc4nc(C)ccc4c2N)C3)C[C@H]1N` [Example 493, 3-amino-N-[(6S)-2-[(3R,4R)-3-amino-4-methoxyazepan-1-yl]-5,6,7,8-tetrahydroquinolin-6-yl]-6-methylthieno[2,3-b]pyridine-2-carboxamide], the IC50 under setting [2] lay in the range of 1 to 50 nM.
On the same count and under the same terms, the value for `CN[C@@H]1CN(c2ccc3c(n2)CC[C@H](NC(=O)c2sc4nc(C)ccc4c2N)C3)C[C@@H]1COC` [Example 489, 3-amino-N-[(6S)-2-[(3S,4S)-3-(methoxymethyl)-4-(methylamino)pyrrolidin-1-yl]-5,6,7,8-tetrahydroquinolin-6-yl]-6-methylthieno[2,3-b]pyridine-2-carboxamide] was 50 to 200 nM.
For `Cc1ccc2c(N)c(C(=O)N[C@H]3COc4cc(N5C[C@H](N)[C@@]6(C5)OCC[C@H]6C)ccc4C3)sc2n1` [Example 612-2, 3-amino-N-[(3R)-7-[(4R,5R,9S)-9-amino-4-methyl-1-oxa-7-azaspiro[4.4]nonan-7-yl]-3,4-dihydro-2H-1-benzopyran-3-yl]-6-methylthieno[2,3-b]pyridine-2-carboxamide], the IC50 under setting [1] lay in the range of 1 to 50 nM.
For the compound `COC[C@@H]1CN(c2ccc3c(n2)CC[C@H](NC(=O)c2sc4cnccc4c2N)C3)C[C@@H]1N` [Example 500, 3-amino-N-[(6S)-2-[(3R,4R)-3-amino-4-(methoxymethyl)pyrrolidin-1-yl]-5,6,7,8-tetrahydroquinolin-6-yl]thieno[2,3-c]pyridine-2-carboxamide], under setting [2], the IC50 is more than 2000 nM.
Regarding `Cc1ccc2c(N)c(C(=O)N[C@H]3COc4nc(N5C[C@@H](CF)[C@@H](N)C5)ccc4C3)sc2n1` [Example 539, 3-amino-N-[(3R)-7-[(3R,4R)-3-amino-4-(fluoromethyl)pyrrolidin-1-yl]-2H,3H,4H-pyrano[2,3-b]pyridin-3-yl]-6-methylthieno[2,3-b]pyridine-2-carboxamide], the IC50 under setting [1] is 50 to 200 nM.
Turning to `Cc1ccc2c(N)c(C(=O)N[C@H]3COc4cc(OC[C@H]5CNC[C@@H]5C(F)(F)F)ccc4C3)sc2n1` [Example 688, 3-amino-6-methyl-N-[(3R)-7-{[(3R,4R)-4-(trifluoromethyl)pyrrolidin-3-yl]methoxy}-3,4-dihydro-2H-1-benzopyran-3-yl]thieno[2,3-b]pyridine-2-carboxamide], under setting [1], the IC50 lay in the range of 1 to 50 nM.
As to `Cc1ccc2c(N)c(C(=O)N[C@H]3CCc4nc(N5C[C@H](N)CC(F)(F)C5)ccc4C3)sc2n1` [Example 519, 3-amino-N-[(6S)-2-[(5R)-5-amino-3,3-difluoropiperidin-1-yl]-5,6,7,8-tetrahydroquinolin-6-yl]-6-methylthieno[2,3-b]pyridine-2-carboxamide], the IC50 under setting [2] lay within 1 to 50 nM.
`CN[C@H]1CN(c2ccc3c(n2)CC[C@H](NC(=O)c2sc4nc(C)ccc4c2N)C3)C[C@]12CCCCO2` [Example 502, 3-amino-6-methyl-N-[(6S)-2-[(4S,5R)-4-(methylamino)-6-oxa-2-azaspiro[4.5]decan-2-yl]-5,6,7,8-tetrahydroquinolin-6-yl]thieno[2,3-b]pyridine-2-carboxamide]: under setting [2], the IC50 fell in the range of 50 to 200 nM.
